Measured values: PubChem BioAssay (NCI)
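Results reflect a 48-hour exposure of cells in 96-well plates to compound at five concentrations. TGI denotes the concentration required for complete inhibition of growth.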

Experiments:
Assay in all cases: growth of human tumour cells (NCI), 48 h
786-0 renal = system: 786-0 renal
A498 renal = system: A498 renal
A549 NSCLC = system: A549 NSCLC
ACHN renal = system: ACHN renal
BT-549 breast = system: BT-549 breast
CAKI-1 renal = system: CAKI-1 renal
CCRF-CEM leukemia = system: CCRF-CEM leukemia
COLO 205 colon = system: COLO 205 colon
DU-145 prostate = system: DU-145 prostate
EKVX NSCLC = system: EKVX NSCLC
HCT-116 colon = system: HCT-116 colon
HCT-15 colon = system: HCT-15 colon
HL-60(TB) leukemia = system: HL-60(TB) leukemia
HOP-62 NSCLC = system: HOP-62 NSCLC
HOP-92 NSCLC = system: HOP-92 NSCLC
HS 578T breast = system: HS 578T breast
HT29 colon = system: HT29 colon
IGROV1 ovarian = system: IGROV1 ovarian
K-562 leukemia = system: K-562 leukemia
KM12 colon = system: KM12 colon
LOX IMVI melanoma = system: LOX IMVI melanoma
M14 melanoma = system: M14 melanoma
MALME-3M melanoma = system: MALME-3M melanoma
MCF7 breast = system: MCF7 breast
MDA-MB-231 breast = system: MDA-MB-231 breast
MDA-MB-435 = system: MDA-MB-435
MDA-N = system: MDA-N
MOLT-4 leukemia = system: MOLT-4 leukemia
NCI-H226 lung = system: NCI-H226 lung
NCI-H23 lung = system: NCI-H23 lung
NCI-H460 lung = system: NCI-H460 lung
NCI-H522 lung = system: NCI-H522 lung
NCI/ADR-RES ovarian = system: NCI/ADR-RES ovarian
OVCAR-3 ovarian = system: OVCAR-3 ovarian
OVCAR-4 ovarian = system: OVCAR-4 ovarian
OVCAR-5 ovarian = system: OVCAR-5 ovarian
OVCAR-8 ovarian = system: OVCAR-8 ovarian
PC-3 prostate = system: PC-3 prostate
RPMI-8226 leukemia = system: RPMI-8226 leukemia
RXF 393 renal = system: RXF 393 renal
SF-268 CNS = system: SF-268 CNS
SF-295 CNS = system: SF-295 CNS
SF-539 CNS = system: SF-539 CNS
SK-MEL-2 melanoma = system: SK-MEL-2 melanoma
SK-MEL-28 melanoma = system: SK-MEL-28 melanoma
SK-MEL-5 melanoma = system: SK-MEL-5 melanoma
SK-OV-3 ovarian = system: SK-OV-3 ovarian
SN12C renal = system: SN12C renal
SNB-19 CNS = system: SNB-19 CNS
SNB-75 CNS = system: SNB-75 CNS
SR leukemia = system: SR leukemia
SW-620 colon = system: SW-620 colon
T-47D breast = system: T-47D breast
TK-10 renal = system: TK-10 renal
U251 CNS = system: U251 CNS
UACC-257 melanoma = system: UACC-257 melanoma
UO-31 renal = system: UO-31 renal
HCC-2998 colon = system: HCC-2998 colon
UACC-62 melanoma = system: UACC-62 melanoma

Measured: TGI

NC(=S)N/N=C\c1ccc(OCc2cccc(COc3ccc(/C=N/NC(N)=S)cc3)n2)cc1
0.921 µM: T-47D breast
38.1 µM: SK-MEL-2 melanoma
12.2 µM: BT-549 breast
52.1 µM: OVCAR-5 ovarian
24.4 µM: SK-MEL-5 melanoma
76 µM: MDA-MB-231 breast
47.9 µM: RXF 393 renal
not listed: HCC-2998 colon | UACC-62 melanoma
> 100 µM: all other assays above

O=C1CCC2(CCO1)OCCO2
not listed: A498 renal | COLO 205 colon | HOP-92 NSCLC | RPMI-8226 leukemia
> 100 µM: all other assays above
